These results are taken from patent US20240398783A1, “Compounds and Pharmaceutical Compositions Comprising Inhibitors of Amyloid Peptide Interactions with Glycosaminoglycans, Methods of Treatment and Use Thereof” (Gismo Therapeutics, Inc., priority 2021, published 2024).

Experiment [1] addresses Amyloid-beta(1-40) binding to heparin (HS-GAG) (Homo sapiens, UniProt P05067). The experiment can be described thus: Inhibition of Amyloid-beta(1-40) binding to immobilized heparin-BSA (ELISA). The note with it: for pIC50: co-incubation on heparin-BSA plates; for inhibition at 30 µM: read-out: Abeta40/Heparin Activity (% inhibition class). Set-up: species or system porcine. Here is the method: (§1) Porcine intestinal mucosa heparin conjugated to Bovine Serum Albumin (Heparin-BSA) was prepared as described (Najjam, S. et al. 1997, Cytokine 12, 1013-1022). Heparin is a sulfated HS-GAG and is commonly used as a HS-GAG in biochemical and binding assays (Lindahl, U. and Kjellen, L. (2013) ibid). Heparin-BSA at 0.01 mg/ml in Phosphate Buffered Saline (PBS; pH 7.4) was added to a 96 well polystyrene ELISA plate (NUNC Cat. No. 449824; 100 μl per well) and incubated Over Night (ON) at 4 degrees Celsius. For negative controls, ELISA plates were coated with BSA instead of Heparin-BSA, using the same procedure. Following the incubation, the plate was washed consecutively, by immersion, with de-ionized water and PBS (pH 7.4). The ELISA plate was then blocked with nonfat milk (2%, 200 μl per well) for 2 hours at Room Temperature (RT) with gentle shaking. Following blocking, the plate was washed with de-ionized water then PBS (pH 7.4). GBAPs were dissolved and diluted in PBS (pH 6.5, supplemented with 0.1% BSA) at desired concentrations, added to the ELISA plates containing immobilized Heparin-BSA (100 μl per well) and incubated for 2 hours at RT with gentle shaking. Following incubation, the plate was washed with de-ionized water and three times with PBS (pH 6.5) plus Tween. Bound GBAP was detected by a monoclonal antibody specific for that GBAP, followed by incubation with secondary antibody conjugated to horseradish peroxidase (HRP). Antibody was diluted in PBS (pH 6.5 supplemented with 1% BSA). Following each incubation with antibody, the plate was washed with de-ionized water and three times with PBS (pH 6.5) wash buffer containing 0.1% Tween. The peroxidase substrate chromogen, TMB (Dako Cat. No. S1599) was added (100 μl per well) to the ELISA plate and incubated at room temperature. After 5 minutes ELISA Stop Solution (hydrochloric acid 1N, sulfuric acid 3N) was added (100 μl per well) to stop the peroxidase catalyzed colorimetric reaction. The Optical Density of the samples was measured at 450 nm using an ELISA plate reader (BioTek Synergy H1). Following color development, the % inhibition compared to control (BSA-coated plates) was determined. IC-50s were calculated using GraphPad Prism software.
The assay was performed as described in Example 43, with the following modifications. Following to coating the plates with Heparin-BSA, plates were washed as described. The compounds were dissolved in DMSO at 10 mM final concentration and further diluted prior to assay. DMSO concentration in the screening well was up to 2%. Individual compounds were co-incubated with Beta-amyloid peptides on plates containing immobilized heparin. Beta-amyloid (1-42) was purchased from rPeptide (Cat. No. A1163) and used to prepare oligomers according to Stine et al., 2003 (J Biol Chem. 278(13):11612-22) as follows. 1,1,1,3,3,3-Hexafluoro-2-propanol- (HFIP; Sigma Cat. No. 105228)-treated Beta amyloid (1-42) was dissolved in dry DMSO (Sigma Cat. No. D2650) to 5 mM concentration. Dissolved Beta amyloid (1-42) was then diluted to 100 μM in ice-cold cell culture medium (phenol red-free Ham's F-12; Caisson Labs, Cat. No. HFL05), followed immediately by vortexing for 30 seconds, and incubating at 4 degrees Celsius for 24 h. Resulting Beta amyloid (1-42) oligomers were centrifuged at 12,000 rpm for 10 min at 4 degree Celsius to remove aggregates. Oligomers were then quickly frozen and kept in aliquots at −80 degrees Celsius. Beta-amyloid (1-40) from rPeptide (Cat No. A1153) was dissolved in DMSO, quickly frozen and kept in aliquots at −80 degrees Celsius. Beta-amyloid (1-42) oligomers or Beta-amyloid (1-40) diluted in PBS (pH 6.5, supplemented with BSA, 0.1%) were added to the ELISA plate (100 μl per well) and incubated for 2 hours at RT with gentle shaking. Following the incubation, the plate was washed with de-ionized water and three times with PBS (pH 6.5) plus Tween. […]

The target in experiment [2] is T1, SAA binding to heparin (HS-GAG) (Homo sapiens, UniProt P0DJI8).
T1 sequence (P0DJI8 19-122): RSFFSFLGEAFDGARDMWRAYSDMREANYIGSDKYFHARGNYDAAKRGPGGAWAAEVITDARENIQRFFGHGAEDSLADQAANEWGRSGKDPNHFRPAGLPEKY
The experiment can be described thus: Inhibition of SAA binding to immobilized heparin-BSA (ELISA). Set-up: species or system porcine. Here is the method: as §1
The assay was performed as described in Example 43, with the following modifications. Following to coating the plates with Heparin-BSA, plates were washed as described. The compounds were dissolved in DMSO at 10 mM final concentration and further diluted prior to assay. DMSO concentration in the screening well was up to 2%. Individual compounds were co-incubated with SAA on plates containing immobilized heparin. Serum amyloid A (SAA) from PeProtech (NJ, USA, Cat. No. 300-53) was dissolved in DMSO, quickly frozen and kept in aliquots at −80 degrees Celsius. SAA dissolved in Tris buffer (pH 6.5, supplemented with BSA, 0.1%) was added to the ELISA plate (100 μl per well) and incubated for 2 hours at RT with gentle shaking. Following the incubation, the plate was washed with de-ionized water and three times with Tris Buffered Saline (TBS, pH 6.5) plus Tween. Bound SAA was detected by Anti-SAA Monoclonal Antibody (R&D System Cat. No. MAB30192), followed by secondary anti-IgG antibody conjugated to HRP (R&D System, Cat. No. HAF007). Antibody was diluted in TBS antibody buffer (pH6.5 supplemented with 1% BSA). Following each incubation with antibody, the plate was washed with de-ionized water and three times with TBS (pH6.5) wash buffer containing 0.1% Tween. Following to color development with TMB, as described in Example 43, the Optical Density of the samples was measured at 450 nm using an ELISA plate reader. Following color development, the % inhibition compared to control (no compound, DMSO control) for every compound was determined.
As described in Example 43, Heparin in the form of Heparin-BSA conjugate is used as a source of HS-GAG. For each compound IC-50 value in SAA—heparin-BSA binding assay is shown in μM (micromolar). […]

Where [3] appears, read: Abeta40/Heparin Activity (IC-50), Abeta(1-40).
Setting [4] is: read-out: Serum Amyloid A/Heparin Activity (IC-50); SAA, heparin-BSA.
The mark [5] stands for this setting: read-out: Serum Amyloid A/Heparin Activity (% inhibition class).
[6] abbreviates: 30 μM compound; SAA, heparin-BSA; read-out: Serum Amyloid A/Heparin Activity (% inhibition class).
[7] abbreviates: 30 μM compound, Abeta(1-40), heparin-BSA.

pIC50: −log10 of the molar value. Counter-ions that a name gives are not always drawn. Like-named read-outs stand apart in the source and are kept apart here.

Chain of Amyloid-beta(1-40) binding to heparin (HS-GAG) (P05067 672-711): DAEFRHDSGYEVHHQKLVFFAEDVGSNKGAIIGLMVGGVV

For `Cc1cc(-n2ccnc2)ccc1/C=N/Nc1ccnc2cc(Cl)ccc12` [Compound 1, (E)-4-((E)-(4-(1H-imidazol-1-yl)-2-methylbenzylidene)hydrazono)-7-chloro-1,4-dihydroquinoline], the pIC50 in experiment [1] (Abeta(1-40), read-out: Abeta40/Heparin Activity (IC-50)) was 5.44; in experiment [2] (SAA, heparin-BSA; read-out: Serum Amyloid A/Heparin Activity (IC-50)), 5.09.
As for `Cc1ncn(-c2ccc(/C=N/Nc3ccnc4cc(Cl)ccc34)cc2)c1C` [Compound 2, (E)-7-chloro-4-((E)-(4-(4,5-dimethyl-1H-imidazol-1-yl)benzylidene)hydrazono)-1,4-dihydroquinoline], the pIC50 is 4.64 in experiment [1] (setting [3]) and 4.79 in experiment [2] (setting [4]).
Take `Clc1ccc2c(N/N=C/c3ccc(-n4cccn4)cc3)ccnc2c1` [Compound 3, (E)-4-((E)-(4-(1H-pyrazol-1-yl)benzylidene)hydrazono)-7-chloro-1,4-dihydroquinoline]: in experiment [1] (setting [3]), the pIC50 is 5.56. Besides, in experiment [2] (setting [5]), the inhibition at 30 µM is greater than 30%.
`C[N+](C)(C)Cc1ccc(/C=N\Nc2ccnc3ccc(Cl)cc23)cc1` [Compound 4, (Z)-1-(4-((2-(6-chloroquinolin-4-yl)hydrazineylidene)methyl)phenyl)—N,N,N-trimethylmethanaminium iodide]: the pIC50 in experiment [1] (setting [3]) is 4.29. Moreover, the inhibition at 30 µM in experiment [2] (setting [6]) was less than 30%.
For `Fc1ccc2c(N/N=C/c3ccc(-n4ccnc4)cc3)ccnc2c1` [Compound 5, (E)-4-(2-(4-(1H-imidazol-1-yl)benzylidene)hydrazinyl)-7-fluoroquinoline], the pIC50 in experiment [1] (setting [3]) is 5.48; in experiment [2] (setting [4]), 4.62.
As to `Fc1ccc2c(N/N=C/c3ccc(CN4CCOCC4)cc3)ccnc2c1` [Compound 6, (E)-4-(4-((2-(7-fluoroquinolin-4-yl)hydrazono)methyl)benzyl)morpholine], the inhibition at 30 µM in experiment [1] (setting [7]) and in experiment [2] (setting [6]) was greater than 30% throughout.
Take `CN1CCN(Cc2ccc(/C=N/Nc3ccnc4cc(Cl)ccc34)cc2)CC1` [Compound 7, (E)-7-chloro-4-(2-(4-((4-methylpiperazin-1-yl)methyl)benzylidene)hydrazinyl)quinolone]: in experiment [1] (setting [3]), the pIC50 was 4.60. In addition, the inhibition at 30 µM in experiment [2] (setting [6]) is greater than 30%.
With `C(=N\Nc1ccc2c3c(cccc13)CC2)/c1ccc(-n2ccnc2)cc1` [Compound 8, (E)-1-(4-((2-(1,2-dihydroacenaphthylen-5-yl)hydrazineylidene)methyl)phenyl)-1H-imidazole], the inhibition at 30 µM in experiment [1] and in experiment [2] (setting [5]) was less than 30% in each case.
On to `C[n+]1ccc(/C=N\Nc2ccnc3ccccc23)cc1` [Compound 9, (Z)-1-methyl-4-((2-(quinolin-4-yl)hydrazono)methyl)pyridin-1-ium iodide], for which the inhibition at 30 µM in experiment [1] (setting [7]) and in experiment [2] (setting [6]) was less than 30% in each case.
Regarding `O=S1(=O)CCN(Cc2ccc(/C=N/Nc3ccnc4cc(F)ccc34)cc2)CC1` [Compound 10, (E)-4-(4-((2-(7-fluoroquinolin-4-yl)hydrazono)methyl)benzyl)thiomorpholine 1,1-dioxide], in experiment [1] (setting [3]), the pIC50 was 4.45. For the same compound, the inhibition at 30 µM in experiment [2] (setting [6]) was less than 30%.
Turning to `COc1cc2nccc(NN=Cc3ccc(-n4ccnc4)c(C)c3)c2cc1OC` [Compound 11, 4-(2-(4-(1H-imidazol-1-yl)-3-methylbenzylidene)hydrazineyl)-6,7-dimethoxyquinoline hydrochloride], the inhibition at 30 µM in experiment [1] is greater than 30%; in experiment [2] (setting [5]), less than 30%.
Take `COc1ccc2c(NN=Cc3ccc(-n4ccnc4)c(C)c3)ccnc2c1` [Compound 12, 4-(2-(4-(1H-imidazol-1-yl)-3-methylbenzylidene)hydrazineyl)-7-methoxyquinoline]: the pIC50 was 4.75 in experiment [1] (setting [3]) and 4.50 in experiment [2] (setting [4]).
For `COc1cc2nccc(N/N=C/c3ccc(-n4ccnc4)c(OC)c3)c2cc1OC` [Compound 13, (E)-4-(2-(4-(1H-imidazol-1-yl)-3-methoxybenzylidene)hydrazineyl)-6,7-dimethoxyquinoline phosphate], the inhibition at 30 µM in experiment [1] and in experiment [2] (setting [5]) was less than 30% in each case.
Take `Clc1ccc2c(N/N=C/c3ccc(-n4ccnc4)nc3)ccnc2c1` [Compound 14, (E)-4-(2-((6-(1H-imidazol-1-yl)pyridin-3-yl)methylene)hydrazineyl)-7-chloroquinoline hydrochloride]: the values for the pIC50 in experiment [1] (setting [3]) and in experiment [2] (setting [4]) were 5.11 and 5.12, respectively.
For `Cc1ncn(-c2ccc(/C=N\Nc3ncnc4cc(Cl)ccc34)cn2)c1C` [Compound 15, 7-chloro-4-(2-((6-(4,5-dimethyl-1H-imidazol-1-yl)pyridin-3-yl)methylene)hydrazineyl)quinazoline hydrochloride], the pIC50 was 4.64 in experiment [1] (setting [3]) and 4.91 in experiment [2] (setting [4]).
On the same counts, the results for `C/C(=N\Nc1ncnc2cc(Cl)ccc12)c1ccc(-n2cnc(C)c2C)nc1` [Compound 16, 7-chloro-4-(2-(1-(6-(4,5-dimethyl-1H-imidazol-1-yl)pyridin-3-yl)ethylidene)hydrazineyl)quinazoline phosphate] are 5.36 and 4.86.
`C/C(=N\Nc1ncnc2cc(Cl)ccc12)c1cccc(CN(C)C)c1` [Compound 29, 1-(3-(1-(2-(7-chloroquinazolin-4-yl)hydrazineylidene)ethyl)phenyl)—N,N-dimethylmethanamine]: the inhibition at 30 µM in experiment [2] (setting [5]) is less than 30%.
As for `C/C(=N\Nc1ncnc2cc(Cl)ccc12)c1ccc(-n2cncn2)nc1` [Compound 32, (E)-4-(2-(1-(6-(1H-1,2,4-triazol-1-yl)pyridin-3-yl)ethylidene)hydrazineyl)-7-chloroquinazoline], the inhibition at 30 µM in experiment [2] (setting [5]) is greater than 30%.
